For data set [1] the following is noted: in vivo; cited from earlier work.
The conditions of data set [2]: in vivo, cited from earlier work.
For data set [3] the following is noted: parent drug; cited from earlier work.
For data set [4], the system named is Volunteer A, a healthy person. In words: Example 6: Volunteer A, Lorazepam with and without neuromodulators. It is filed as in vivo, human. As to the method: Volunteer A, a healthy person ([…], 95 Kg), was prescribed 1 mg Lorazepam (BDR) by their family doctor for anxiety and anxiety related insomnia. Volunteer A took Lorazepam in conjunction with the neuromodulators to reduce Lorazepam's associated sedative side-effects. Volunteer A, who felt their anxiety peak particularly on weekends, agreed to take Lorazepam during the day together with the neuromodulators. […] When taking Lorazepam simultaneously with Pseudoephedrine, Guaifenesin and, Volunteer A was sedated and less anxious.

The conditions of data set [5]: CNS active agent; cited from earlier work.
The test system of the next data set is subject. In words: Example 5: Lorazepam with pseudoephedrine and Mucinex, subject report. The format is in vivo, human. Particulars: Lorazepam 1 mg and pseudoephedrine 60 mg; 15 minutes later Mucinex 600 mg. As to the method:
The subject reported that they took Lorazepam 1 mg and pseudoephedrine 60 mg at 12 noon and 15 minutes later ingested and Mucinex 600 mg.

Another data set relates to four healthy volunteers. In words: Example 9: Stanford Sleepiness Scale study with lorazepam. It is filed as in vivo, human. Particulars: for 2:00 SSS / 4:00 SSS / 6:00 SSS / time until subject was asleep: individual subjects. Here is the method:
The purpose of this study was to determine if the co-administration of pseudoephedrine and guaifenesin with lorazepam is effective in reducing the sedation commonly seen with the administration of lorazepam alone. The research study was performed on four healthy volunteers ages 25-41 years old and 60-75 kg. The study was carried out by two sessions with a one-week interval between the sessions. During the study volunteers completed a set of tests to measure sleepiness by the Stanford Sleepiness Scale (SSS). This test was done before doses of study drug and 2, 4 and 6 hours after doses of study drug (see FIG. 5 for an illustration of the study scheme).
At the first study session volunteers received the treatment (Lorazepam 1.0 mg)+PLAC (placebo)+ and 15 minutes later another PLAC. […] They stayed awake at the 4- and 6-hour time points. Their SSS scores were 2. Two subjects were asleep in one hour. One of them slept 3.5 hours, their SSS at the 6-hour time point was 2. The second subject slept 2.5 hours, and their SSS scores for both the 4- and 6-hour time points were 2. […] They remained awake at the 4- and 6-hour time points. Their SSS scores were 2.
At the second study session volunteers received the treatment (Lorazepam 1.0 mg+60 mg of pseudoephedrine) and 15 minutes later received 400 mg of guaifenesin. During this session all four subjects remained awake most of the time. […] They missed the 2-hour time point measurement, and their SSS scores for the 4- and 6-hour time points were 2 and 3, respectively. […] Their SSS score for 2-hour time point was 2. This subject was asleep again within 3 and a half hours and slept for one hour. They missed the 4-hour time point, but was awake for measurements at the 6-hour time point (SSS was 2). […] They stayed awake the rest of the time, and their SSS scores for the 2-, 4-, and 6-hour time points were 3,2,3 respectively.

The subject of another data set is treated patients. Particulars: anti-epileptics; cited from earlier work.
The mark [6] stands for this setting: 1 mg Lorazepam together with Pseudoephedrine followed by Guaifenesin after 15 minutes.
The mark [7] stands for this setting: Lorazepam followed 15 minutes later by Guaifenesin.
The mark [8] stands for this setting: Lorazepam simultaneously with Pseudoephedrine, Guaifenesin.
[9] abbreviates: Lorazepam together with pseudoephedrine.
Setting [10] is: First Visit Day on Placebo: Lorazepam 1.0 mg + placebo.
[11] abbreviates: First Visit Day on Placebo: Lorazepam 1.0 mg + placebo, listed as lorazepam.
[12] abbreviates: Lorazepam 1.0 mg + pseudoephedrine, guaifenesin 15 minutes later.
The mark [13] stands for this setting: Second Visit Day on Active Neuromodulation: Lorazepam 1.0 mg + 60 mg pseudoephedrine, 400 mg guaifenesin 15 minutes later.
[14] abbreviates: Second Visit Day on Active Neuromodulation: Lorazepam 1.0 mg + 60 mg pseudoephedrine, 400 mg guaifenesin 15 minutes later, listed as lorazepam.

“And” between values parts separate entries of the source, which are not always exact repeats. Equal entries are not always repeated. “Also recorded” adds a separate entry of the source. Where two headings read alike, the source gives them in different places.

`CN(C)CCC=C1c2ccccc2C=Cc2ccccc21` [Cyclobenzaprine]: the Elimination Half-Life in data set [1] was 24 to 72 h. Also, in data set [2], the Half-life was 8 to 37 h and the Tmax is 1 to 2 h. In addition, in data set [2] (listed as Flexeril), the Half-life was 24 to 72 h and the Tmax is listed as 1 h.

Regarding `O=C1Nc2ccc(Cl)cc2C(c2ccccc2Cl)=NC1O` (centres unmarked) [Lorazepam], the “Elimination Half-Life” value in data set [3] was 10 to 20 h. For the same compound, the anxiety reported entry in data set [4] (setting [6]) was “feeling at ease and anxiety free”; in data set [4] (Lorazepam alone), “their anxiety was ameliorated”; in data set [4] (setting [7]), “hostile and anxious”; in data set [4] (setting [8]), “less anxious”; in data set [4] (setting [9]), “upon waking felt much less anxious than without treatment”. In addition, the sedation reported result is recorded as “did not feel sedated” in data set [4] (setting [6]); “severely sedated” in data set [4] (Lorazepam alone); “somewhat sedated” in data set [4] (setting [7]); “sedated” in data set [4] (setting [8]); “as sedated as with Lorazepam alone” in data set [4] (setting [9]). Moreover, the “sleep in an afternoon” value in data set [4] (Lorazepam alone) was “over 3 hours”. In addition, the Tmax in data set [5] is recorded as 2 h. Besides, in data set [5], the bioactivity is reported as 90%. Also, the subject-reported effects result with subject is on record as “a little “loopy””. Also, the “2:00 SSS” value in the data set with four healthy volunteers (setting [10]) was “X - Asleep”; in the data set with four healthy volunteers (setting [13]), 3 and 2; in the data set on four healthy volunteers (setting [14]), 3 (2×) and X - Asleep and 2. The “4:00 SSS” value was 2 with four healthy volunteers (setting [10]); 2 (2×) and 3 and X - Asleep in the data set with four healthy volunteers (setting [11]); 3 and 2 with four healthy volunteers (setting [13]); 3 and 2 (2×) and X - Asleep in the data set with four healthy volunteers (setting [14]). The “6:00 SSS” value was 2 in the data set on four healthy volunteers (setting [10]); 2 (3×) and X - Asleep with four healthy volunteers (setting [11]); 3 and 2 with four healthy volunteers (setting [13]); 3 (3×) and 2 in the data set with four healthy volunteers (setting [14]). Moreover, the “sleep duration of individual subjects” value with four healthy volunteers (Lorazepam 1.0 mg + placebo) was “three hours and 3.5 hours and 2.5 hours and 1 hour 15 minutes”; in the data set with four healthy volunteers (setting [12]), “stayed awake throughout the study and half an hour and 15 minutes and one hour”. The “time until subject was asleep” value was “within a half hour; also recorded: in one and a half hours” with four healthy volunteers (Lorazepam 1.0 mg + placebo); “within an hour and a half” with four healthy volunteers (setting [12]). The same compound gave a total sleep time in the data set on four healthy volunteers (second session, Lorazepam administrated with neuromodulators, two subjects) of 30 min.

On to `NC(=O)N1c2ccccc2C=Cc2ccccc21` [Carbamazepine], for which the Elimination Half-Life entry in data set [1] is “about 12 hours”. In addition, in the data set on treated patients, the Psychiatric side-effects result is recorded as “Depression, agitation, sedation, psychosis, cognitive”.

(Values after US9579299B2, “CNS pharmaceutical compositions and methods of use” (TARGIA PHARMACEUTICALS, priority 2008, dated 2017).)
